The record followed here is ChEMBL document CHEMBL4118141, “Design, synthesis and biological evaluation of novel hydrogen sulfide releasing capsaicin derivatives” (Bioorg Med Chem, 2018).

The source made the active and inactive calls. The calls are words filed in the database; no cut-off is given here. A value given as a limit tells only on which side of the number the result lay.

The IC50 is the concentration needed to halve the response being measured. A low value points to inhibition by little substance. What is called LD50 is the dose at which mortality reaches 50%. Read a high LD50 as lower toxicity.

Data set [1] concerns K562. Description: Antiproliferative activity against human K562 cells after 48 hrs by MTT assay. Type of data set: functional, cell-based. The following applies: K562, 48 h. In general terms: Formazan colour is commonly taken as a measure of viable cells.
In data set [2] the test system is HeLa. Put plainly: Antiproliferative activity against human HeLa cells after 48 hrs by MTT assay. In kind it is functional, cell-based.
The test system of data set [3] is MCF7. Put plainly: Antiproliferative activity against human MCF7 cells after 48 hrs by MTT assay. The following applies: MCF7, 48 h. Type of data set: functional, cell-based.
For data set [4], the system named is Mus musculus. Put plainly: Ulcerogenic activity in Kunming mouse assessed as lesion in stomach at 30 mg/kg, po qd for 6 days measured on day 7 by microscopic analysis. In kind it is toxicity, organism-based. The following applies: in vivo, 144 h.
A short description of data set [5]: Acute toxicity in po dosed CD rat measured for 7 days. The following applies: in vivo. Type of data set: organism-based.
Data set [6] has as its target Transient receptor potential cation channel subfamily V member 1 (Homo sapiens) (UniProt Q8NER1). Description: Agonist activity at human TRPV1 expressed in HEK293 cells assessed as increase in calcium influx by measuring ratio of 340/380 nm excitatory wavelength at 10 uM treated for 2 mins by Fura-2AM dye-based fluorescence assay. In kind it is cell-based.
The subject of data set [7] is Mus musculus. Description: Antinociceptive activity in capsaicin-induced nociception pain Kunming mouse model assessed as reduction in time spent in paw licking at 60 mg/kg, po pretreated for 30 mins followed by capsaicin challenge measured for 5 mins post capsaicin challenge. Type of data set: functional, organism-based.
For data set [8], the system named is Mus musculus. Put plainly: Antinociceptive activity in Kunming mouse model assessed as inhibition of acetic acid-induced writhes at 60 mg/kg, po pretreated for 30 mins followed by acetic acid challenge measured for 15 mins post acetic acid challenge. In kind it is functional, organism-based.
In data set [9] the test system is Mus musculus. Description: Antinociceptive activity in Kunming mouse model of thermal-induced nociception assessed as increase in latency to tail withdrawal at 60 mg/kg, po by tail flick test. In kind it is functional, organism-based. A general note: Hot-plate and tail-flick tests time the reaction to a heat stimulus.

Chain of Transient receptor potential cation channel subfamily V member 1 (Homo sapiens) (Q8NER1 whole entry): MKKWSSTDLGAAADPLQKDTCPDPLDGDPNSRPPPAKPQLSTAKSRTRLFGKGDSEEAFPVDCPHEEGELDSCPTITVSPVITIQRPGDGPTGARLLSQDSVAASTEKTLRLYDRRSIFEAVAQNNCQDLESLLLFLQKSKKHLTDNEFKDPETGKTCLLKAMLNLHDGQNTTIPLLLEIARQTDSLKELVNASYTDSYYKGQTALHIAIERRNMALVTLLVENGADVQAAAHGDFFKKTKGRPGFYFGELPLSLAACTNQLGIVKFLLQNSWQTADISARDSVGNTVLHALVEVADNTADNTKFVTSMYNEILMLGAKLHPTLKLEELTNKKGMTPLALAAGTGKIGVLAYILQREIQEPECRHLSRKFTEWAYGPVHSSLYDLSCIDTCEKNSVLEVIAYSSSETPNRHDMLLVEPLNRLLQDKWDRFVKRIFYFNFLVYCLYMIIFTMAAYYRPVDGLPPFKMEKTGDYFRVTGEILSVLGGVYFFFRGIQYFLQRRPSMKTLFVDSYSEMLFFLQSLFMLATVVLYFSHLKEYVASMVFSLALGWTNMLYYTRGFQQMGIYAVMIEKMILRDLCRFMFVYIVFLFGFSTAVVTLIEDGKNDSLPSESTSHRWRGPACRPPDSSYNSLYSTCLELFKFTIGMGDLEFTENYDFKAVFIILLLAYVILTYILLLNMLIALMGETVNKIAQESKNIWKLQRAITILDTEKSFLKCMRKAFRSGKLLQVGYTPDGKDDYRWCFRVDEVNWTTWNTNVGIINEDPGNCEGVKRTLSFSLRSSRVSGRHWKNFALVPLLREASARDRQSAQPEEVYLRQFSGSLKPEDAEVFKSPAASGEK

Consider `COc1cc(CNC(=O)CCCC/C=C/C(C)C)ccc1O` [CAPSAICIN], for which the IC50 in data set [1] is 49.4 µM; in data set [2], over 50 µM; in [3], 50 µM. For the same compound, the Activity entry in [4] was “Toxic”. In data set [5], this compound returned an LD50 at 168 h of 161 mg/kg.

On to `COc1cc(CNC(=O)CCCC/C=C/C(C)C)ccc1OCCCCOc1ccc(-c2cc(=S)ss2)cc1`, for which, in data set [6], the Ratio came to 1.96. Moreover, the IC50 was over 50 µM in data set [1], 47.1 µM in data set [2] and 36.4 µM in data set [3]. The result in data set [7] and in [9] was Active. The inhibition result in data set [8] is “Active”. Further, in [4], the Activity entry is “Non-Toxic”.

`COc1cc(CNC(=O)CCCC/C=C/C(C)C)ccc1OCCCCCOc1ccc(-c2cc(=S)ss2)cc1`: the Ratio in data set [6] turned out to be 1.71. For the same compound, the IC50 in [1], in data set [2] and in data set [3] was over 50 µM each time. The result in data set [7] was Active. For the same compound, the inhibition entry in data set [8] is “Active”.

For the compound `COc1cc(CNC(=O)CCCC/C=C/C(C)C)ccc1OC(=O)CCC(=O)Oc1ccc(-c2cc(=S)ss2)cc1`, the Ratio in data set [6] is 2.1. Moreover, the IC50 in [1] is 4.45 µM; in data set [2], 4.25 µM; in [3], 2.12 µM. In addition, the result in data set [7] and in [9] was Active. Besides, the inhibition entry in data set [8] is “Active”. For the same compound, the Activity entry in data set [4] is “Non-Toxic”.

As for `COc1cc(CNC(=O)CCCCCCC(C)C)ccc1OC(=O)CCC(=O)Oc1ccc(-c2cc(=S)ss2)cc1`, the Ratio in data set [6] worked out at 1.96. The IC50 in data set [1] stood at 5.93 µM; in data set [2], 5.53 µM; in data set [3], 2.56 µM. Besides, the outcome in data set [7] was Active. The inhibition entry in data set [8] is “Active”.

Regarding `COc1cc(CNC(=O)CCCCCCC(C)C)ccc1OCCCCCOc1ccc(-c2cc(=S)ss2)cc1`, the Ratio in data set [6] is 1.69. Further, the IC50 in data set [1] is over 50 µM; in data set [2], over 50 µM; in data set [3], 48.6 µM. Moreover, the outcome in [7] was Active. In addition, the inhibition result in data set [8] was “Active”.

On to `COc1cc(CNC(=O)CCCCCCC(C)C)ccc1OC(=O)CCC(=O)Oc1ccc(C(N)=S)cc1`, for which the Ratio in data set [6] came to 1.87. In [2], this compound gave an IC50 of over 50 µM. Further, the result in data set [7] was Active. The inhibition entry in [8] was “Active”.

For `COc1cc(CNC(=O)CCCCCCC(C)C)ccc1OCCCCOc1ccc(C(N)=S)cc1`, in data set [6], the Ratio was determined as 1.59. For the same compound, the IC50 in data set [1] was over 50 µM; in data set [2] it was 40.7 µM; in [3], 4.99 µM. Besides, in data set [7], the result was Active. Also, the inhibition result in data set [8] is “Active”.

`COc1cc(CNC(=O)CCCCCCC(C)C)ccc1OCCCCCOc1ccc(C(N)=S)cc1`: the Ratio in data set [6] amounted to 1.76. The half-inhibitory concentration (IC50) is over 50 µM in data set [1], over 50 µM in [2] and 49.3 µM in data set [3]. In addition, in data set [7], the result was Active. Besides, the inhibition result in data set [8] was “Active”.

For `COc1cc(CNC(=O)CCCCCCC(C)C)ccc1O` [DIHYDROCAPSAICIN], the Ratio in [6] was 2. Besides, the IC50 in [1], in data set [2] and in data set [3] was over 50 µM in each case.

Consider `COc1cccc2c1C(=O)c1c(O)c3c(c(O)c1C2=O)C[C@@](O)(C(=O)CO)C[C@@H]3O[C@H]1C[C@H](N)[C@H](O)[C@H](C)O1` [DOXORUBICIN], for which the IC50 came to 1.51 µM in data set [1] and 0.451 µM in data set [2].

As for `COc1cc(CNC(=O)CCCCCCC(C)C)ccc1OCCCCOc1ccc(-c2cc(=S)ss2)cc1`, in [6], the Ratio is 1.69. Besides, the figures for the IC50 in data set [1], in data set [2] and in data set [3] were over 50 µM, 44.6 µM and 49.5 µM, respectively. Also, in [7], the outcome was Active. Besides, the inhibition entry in data set [8] is “Active”.

In the case of `COc1cc(CNC(=O)CCCC/C=C/C(C)C)ccc1OC(=O)c1ccc(C(N)=S)cc1`, the Ratio in data set [6] was 1.77. Further, the 50% inhibitory concentration (IC50) in data set [1] is over 50 µM; in data set [2] it was 39.6 µM; in data set [3], 39.4 µM. Further, in data set [7], the result was Active. Further, in [8], the inhibition result was “Active”. The Activity entry in data set [4] is “Non-Toxic”.

Turning to `COc1cc(CNC(=O)CCCC/C=C/C(C)C)ccc1OCCCCOc1ccc(C(N)=S)cc1`, the Ratio in data set [6] was 1.7. Besides, the IC50 is over 50 µM in [1], over 50 µM in data set [2] and 49.8 µM in data set [3]. Moreover, the result in [7] was Active. The inhibition entry in [8] was “Active”.

As for `COc1cc(CNC(=O)CCCC/C=C/C(C)C)ccc1OCCCCCOc1ccc(C(N)=S)cc1`, the Ratio in data set [6] came out at 1.87. Besides, the IC50 is over 50 µM in data set [1], 46.4 µM in data set [2] and 17.2 µM in [3]. In data set [7], the result was Active. The inhibition result in data set [8] is “Active”.

`COc1cc(CNC(=O)CCCC/C=C/C(C)C)ccc1OC(=O)CCC(=O)Oc1ccc(C(N)=S)cc1`: in [6], the Ratio was found to be 1.94. The IC50 in data set [1], in [2] and in [3] was over 50 µM in each case. The result in [7] was Active. Besides, in [8], the inhibition entry was “Active”. Further, in [4], the Activity result is listed as “Non-Toxic”.

Regarding `COc1cc(CNC(=O)CCCCCCC(C)C)ccc1OC(=O)c1ccc(C(N)=S)cc1`, the Ratio in data set [6] was 1.69. In addition, the IC50 in [1], in data set [2] and in data set [3] was over 50 µM each time. Besides, in data set [7], the outcome was Active. The inhibition result in [8] was “Active”.

`CC(C)(C)c1ccc(NC(=O)N2CCN(c3ncccc3Cl)CC2)cc1`: the outcome in data set [9] was Active.
